What was measured:
[1] = One-month toxicology study in rat; settings: in vivo
[2] = test system: JAK1; set-up: method as in PMID 32297743; settings: ref [9]; cited from earlier work
[3] = Safety (TEAEs), JACKPOT3; format: in vivo, human; settings: n = 6
Text: The safety monitoring for both JACKPOT2 and JACKPOT3 was similar, included monitoring of adverse events/serious adverse events, clinical safety laboratory tests (clinical chemistry, hematology, coagulation, and urinalysis tests), 12-lead ECG, vital signs (blood pressure, pulse rate, and respiratory rate), and pulmonary function.

[4] = Permeability in vitro; format: in vitro ADME
[5] = Safety (TEAEs), JACKPOT2 food effect cohort; format: in vivo, human
Text: Safety assessments included monitoring of adverse events/serious adverse events, clinical safety laboratory tests (clinical chemistry, hematology, coagulation, and urinalysis tests), 12-lead ECG, vital signs (blood pressure, pulse rate, and respiratory rate), and pulmonary function. All adverse events were coded using the Medical Dictionary for Regulatory Activities (MedDRA), version 22.0. The CTCAE 5.0 was used to define the intensity of AEs.

SMILES: COc1nn(C)cc1Nc1nccc(-c2c[nH]c3c(NC(=O)[C@@H](C)N4CCN(C)CC4)cccc23)n1 [golidocitinib, (2R)-N-[3-[2-[(3-Methoxy-1-methyl-pyrazol-4-yl)amino]pyrimidin-4-yl]-1H-indol-7-yl]-2-(4-methylpiperazin-1-yl)propenamide]
- Human equivalent dose of the NOAEL at 1 month ([1]; body surface area (BSA) conversion, read-out: Human Equivalent Dose (HED) of the NOAEL): 0.972 mg/kg
- NOAEL at 1 month ([1]; most sensitive species (rat), one-month toxicology study, read-out: No Observed Adverse Effect Level (NOAEL)): 6 mg/kg
- selectivity to JAK1 over other JAK family kinases [2]: greater than 200 folds
- ALT Increased ([3]; 25 mg): 0 n (%)
- AST Increased ([3]; 25 mg): 0 n (%)
- Abdominal discomfort ([3]; 25 mg): 1 (16.7%) n (%)
- Blood and Lymphatic System Disorders ([3]; 25 mg): 1 (16.7%) n (%)
- Blood bilirubin increased ([3]; 25 mg): 0 n (%)
- Blood cholesterol increased ([3]; 25 mg): 0 n (%)
- C-reactive protein increased ([3]; 25 mg): 1 (16.7%) n (%)
- Diarrhea ([3]; 25 mg): 1 (16.7%) n (%)
- ECG QT prolonged ([3]; 25 mg): 0 n (%)
- Epistaxis ([3]; 25 mg): 0 n (%)
- Gastrointestinal disorders ([3]; 25 mg): 2 (33.3%) n (%)
- Glucose urine present ([3]; 25 mg): 0 n (%)
- Hemoglobin decreased ([3]; 25 mg): 0 n (%)
- Hypertriglyceridemia ([3]; 25 mg): 0 n (%)
- Injury, poisoning and procedural complications ([3]; 25 mg): 1 (16.7%) n (%)
- Investigations ([3]; 25 mg): 2 (33.3%) n (%)
- LDH increased ([3]; 25 mg): 0 n (%)
- LDL increased ([3]; 25 mg): 0 n (%)
- Leukocytosis ([3]; 25 mg): 1 (16.7%) n (%)
- Limb injury ([3]; 25 mg): 1 (16.7%) n (%)
- Metabolism and nutrition disorders ([3]; 25 mg): 0 n (%)
- Musculoskeletal and connective tissue disorders ([3]; 25 mg): 0 n (%)
- Musculoskeletal pain ([3]; 25 mg): 0 n (%)
- Musculoskeletal stiffness ([3]; 25 mg): 0 n (%)
- Neutrophil count decreased ([3]; 25 mg): 1 (16.7%) n (%)
- Productive cough ([3]; 25 mg): 1 (16.7%) n (%)
- Respiratory, Thoracic and Mediastinal Disorders ([3]; 25 mg): 1 (16.7%) n (%)
- Rhinorrhea ([3]; 25 mg): 0 n (%)
- Subjects with at least one TEAE ([3]; 25 mg): 4 (66.7%) n (%)
- Wound ([3]; 25 mg): 0 n (%)
- ALT Increased ([3]; 50 mg): 1 (16.7%) n (%)
- AST Increased ([3]; 50 mg): 2 (33.3%) n (%)
- Abdominal discomfort ([3]; 50 mg): 0 n (%)
- Blood and Lymphatic System Disorders ([3]; 50 mg): 0 n (%)
- Blood bilirubin increased ([3]; 50 mg): 1 (16.7%) n (%)
- Blood cholesterol increased ([3]; 50 mg): 0 n (%)
- C-reactive protein increased ([3]; 50 mg): 0 n (%)
- Diarrhea ([3]; 50 mg): 0 n (%)
- ECG QT prolonged ([3]; 50 mg): 0 n (%)
- Epistaxis ([3]; 50 mg): 0 n (%)
- Gastrointestinal disorders ([3]; 50 mg): 0 n (%)
- Glucose urine present ([3]; 50 mg): 0 n (%)
- Hemoglobin decreased ([3]; 50 mg): 0 n (%)
- Hypertriglyceridemia ([3]; 50 mg): 1 (16.7%) n (%)
- Injury, poisoning and procedural complications ([3]; 50 mg): 0 n (%)
- Investigations ([3]; 50 mg): 3 (50.0%) n (%)
- LDH increased ([3]; 50 mg): 1 (16.7%) n (%)
- LDL increased ([3]; 50 mg): 1 (16.7%) n (%)
- Leukocytosis ([3]; 50 mg): 0 n (%)
- Limb injury ([3]; 50 mg): 0 n (%)
- Metabolism and nutrition disorders ([3]; 50 mg): 1 (16.7%) n (%)
- Musculoskeletal and connective tissue disorders ([3]; 50 mg): 0 n (%)
- Musculoskeletal pain ([3]; 50 mg): 0 n (%)
- Musculoskeletal stiffness ([3]; 50 mg): 0 n (%)
- Neutrophil count decreased ([3]; 50 mg): 0 n (%)
- Productive cough ([3]; 50 mg): 0 n (%)
- Respiratory, Thoracic and Mediastinal Disorders ([3]; 50 mg): 0 n (%)
- Rhinorrhea ([3]; 50 mg): 0 n (%)
- Subjects with at least one TEAE ([3]; 50 mg): 3 (50.0%) n (%)
- Wound ([3]; 50 mg): 0 n (%)
- ALT Increased ([3]; 100 mg): 1 (16.7%) n (%)
- AST Increased ([3]; 100 mg): 0 n (%)
- Abdominal discomfort ([3]; 100 mg): 0 n (%)
- Blood and Lymphatic System Disorders ([3]; 100 mg): 0 n (%)
- Blood bilirubin increased ([3]; 100 mg): 0 n (%)
- Blood cholesterol increased ([3]; 100 mg): 0 n (%)
- C-reactive protein increased ([3]; 100 mg): 1 (16.7%) n (%)
- Diarrhea ([3]; 100 mg): 0 n (%)
- ECG QT prolonged ([3]; 100 mg): 0 n (%)
- Epistaxis ([3]; 100 mg): 1 (16.7%) n (%)
- Gastrointestinal disorders ([3]; 100 mg): 0 n (%)
- Glucose urine present ([3]; 100 mg): 0 n (%)
- Hemoglobin decreased ([3]; 100 mg): 0 n (%)
- Hypertriglyceridemia ([3]; 100 mg): 2 (33.3%) n (%)
- Injury, poisoning and procedural complications ([3]; 100 mg): 0 n (%)
- Investigations ([3]; 100 mg): 2 (33.3%) n (%)
- LDH increased ([3]; 100 mg): 0 n (%)
- LDL increased ([3]; 100 mg): 0 n (%)
- Leukocytosis ([3]; 100 mg): 0 n (%)
- Limb injury ([3]; 100 mg): 0 n (%)
- Metabolism and nutrition disorders ([3]; 100 mg): 2 (33.3%) n (%)
- Musculoskeletal and connective tissue disorders ([3]; 100 mg): 1 (16.7%) n (%)
- Musculoskeletal pain ([3]; 100 mg): 0 n (%)
- Musculoskeletal stiffness ([3]; 100 mg): 1 (16.7%) n (%)
- Neutrophil count decreased ([3]; 100 mg): 0 n (%)
- Productive cough ([3]; 100 mg): 0 n (%)
- Respiratory, Thoracic and Mediastinal Disorders ([3]; 100 mg): 1 (16.7%) n (%)
- Rhinorrhea ([3]; 100 mg): 0 n (%)
- Subjects with at least one TEAE ([3]; 100 mg): 4 (66.7%) n (%)
- Wound ([3]; 100 mg): 0 n (%)
- ALT Increased ([3]; 150 mg): 0 n (%)
- AST Increased ([3]; 150 mg): 0 n (%)
- Abdominal discomfort ([3]; 150 mg): 0 n (%)
- Blood and Lymphatic System Disorders ([3]; 150 mg): 0 n (%)
- Blood bilirubin increased ([3]; 150 mg): 2 (33.3%) n (%)
- Blood cholesterol increased ([3]; 150 mg): 1 (16.7%) n (%)
- C-reactive protein increased ([3]; 150 mg): 1 (16.7%) n (%)
- Diarrhea ([3]; 150 mg): 1 (16.7%) n (%)
- ECG QT prolonged ([3]; 150 mg): 1 (16.7%) n (%)
- Epistaxis ([3]; 150 mg): 0 n (%)
- Gastrointestinal disorders ([3]; 150 mg): 1 (16.7%) n (%)
- Glucose urine present ([3]; 150 mg): 1 (16.7%) n (%)
- Hemoglobin decreased ([3]; 150 mg): 1 (16.7%) n (%)
- Hypertriglyceridemia ([3]; 150 mg): 2 (33.3%) n (%)
- Injury, poisoning and procedural complications ([3]; 150 mg): 1 (16.7%) n (%)
- Investigations ([3]; 150 mg): 4 (66.7%) n (%)
- LDH increased ([3]; 150 mg): 0 n (%)
- LDL increased ([3]; 150 mg): 1 (16.7%) n (%)
- Leukocytosis ([3]; 150 mg): 0 n (%)
- Limb injury ([3]; 150 mg): 0 n (%)
- Metabolism and nutrition disorders ([3]; 150 mg): 2 (33.3%) n (%)
- Musculoskeletal and connective tissue disorders ([3]; 150 mg): 1 (16.7%) n (%)
- Musculoskeletal pain ([3]; 150 mg): 1 (16.7%) n (%)
- Musculoskeletal stiffness ([3]; 150 mg): 0 n (%)
- Neutrophil count decreased ([3]; 150 mg): 2 (33.3%) n (%)
- Productive cough ([3]; 150 mg): 0 n (%)
- Respiratory, Thoracic and Mediastinal Disorders ([3]; 150 mg): 1 (16.7%) n (%)
- Rhinorrhea ([3]; 150 mg): 1 (16.7%) n (%)
- Subjects with at least one TEAE ([3]; 150 mg): 6 (100%) n (%)
- Wound ([3]; 150 mg): 1 (16.7%) n (%)
- permeability [4]: high permeability
- Alanine Aminotransferase Increased ([5]; 50 mg (Fasted), n = 12): 1 (8.3%) n (%)
- Anemia ([5]; 50 mg (Fasted), n = 12): 0 n (%)
- Aspartate Aminotransferase Increased ([5]; 50 mg (Fasted), n = 12): 0 n (%)
- Blood Lactate Dehydrogenase Increased ([5]; 50 mg (Fasted), n = 12): 0 n (%)
- Blood and Lymphatic System Disorders ([5]; 50 mg (Fasted), n = 12): 0 n (%)
- Cardiac Disorders ([5]; 50 mg (Fasted), n = 12): 1 (8.3%) n (%)
- Cough ([5]; 50 mg (Fasted), n = 12): 0 n (%)
- Extrasystoles ([5]; 50 mg (Fasted), n = 12): 1 (8.3%) n (%)
- Headache ([5]; 50 mg (Fasted), n = 12): 0 n (%)
- Investigations ([5]; 50 mg (Fasted), n = 12): 2 (16.7%) n (%)
- Lipase Increased ([5]; 50 mg (Fasted), n = 12): 1 (8.3%) n (%)
- Nervous System Disorders ([5]; 50 mg (Fasted), n = 12): 0 n (%)
- Respiratory, Thoracic and Mediastinal Disorders ([5]; 50 mg (Fasted), n = 12): 0 n (%)
- Rhinorrhea ([5]; 50 mg (Fasted), n = 12): 0 n (%)
- Subjects with at least one TEAE ([5]; 50 mg (Fasted), n = 12): 3 (25.0%) n (%)
- Alanine Aminotransferase Increased ([5]; 50 mg (Fed), n = 11): 3 (27.3%) n (%)
- Anemia ([5]; 50 mg (Fed), n = 11): 1 (9.1%) n (%)
- Aspartate Aminotransferase Increased ([5]; 50 mg (Fed), n = 11): 2 (18.2%) n (%)
- Blood Lactate Dehydrogenase Increased ([5]; 50 mg (Fed), n = 11): 1 (9.1%) n (%)
- Blood and Lymphatic System Disorders ([5]; 50 mg (Fed), n = 11): 1 (9.1%) n (%)
- Cardiac Disorders ([5]; 50 mg (Fed), n = 11): 0 n (%)
- Cough ([5]; 50 mg (Fed), n = 11): 1 (9.1%) n (%)
- Extrasystoles ([5]; 50 mg (Fed), n = 11): 0 n (%)
- Headache ([5]; 50 mg (Fed), n = 11): 1 (9.1%) n (%)
- Investigations ([5]; 50 mg (Fed), n = 11): 4 (36.4%) n (%)
- Lipase Increased ([5]; 50 mg (Fed), n = 11): 1 (9.1%) n (%)
- Nervous System Disorders ([5]; 50 mg (Fed), n = 11): 1 (9.1%) n (%)
- Respiratory, Thoracic and Mediastinal Disorders ([5]; 50 mg (Fed), n = 11): 2 (18.2%) n (%)
- Rhinorrhea ([5]; 50 mg (Fed), n = 11): 2 (18.2%) n (%)
- Subjects with at least one TEAE ([5]; 50 mg (Fed), n = 11): 7 (63.6%) n (%)
- discontinuation due to AE ([5]; 50 mg, fasted state, AE mild, resolved within 2 hours without treatment): one subject was discontinued due to an AE of trigeminy

From PMC10108266, “Pharmacokinetic characteristics of golidocitinib, a highly selective JAK1 inhibitor, in healthy adult participants” (Frontiers in Immunology, 2023)
